Reference: ChEMBL document CHEMBL2010711, “Synthesis and comparative evaluation of 4-oxa- and 4-aza-podophyllotoxins as antiproliferative microtubule destabilizing agents” (Bioorg Med Chem Lett, 2012)
Calls of active or inactive are those of the source.

What was measured:
NCI-H226 = test: Cytotoxicity against human NCI-H226 cells after 48 hrs by trypan blue dye exclusion assay; assay type: functional; conditions: NCI-H226, 48 h
KM12 = test: Cytotoxicity against human KM12 cells after 48 hrs by trypan blue dye exclusion assay; assay type: functional; conditions: KM12, 48 h
RXF 393 = test: Cytotoxicity against human RXF393 cells after 48 hrs by trypan blue dye exclusion assay; assay type: functional; conditions: RXF 393, 48 h
LOX IMVI = test: Cytotoxicity against human LOXIMVI cells after 48 hrs by trypan blue dye exclusion assay; assay type: functional
NCI-H322M = test: Cytotoxicity against human NCI-H322M cells after 48 hrs by trypan blue dye exclusion assay; assay type: functional
SF-539 = test: Cytotoxicity against human SF539 cells after 48 hrs by trypan blue dye exclusion assay; assay type: functional; conditions: SF-539, 48 h
NCI/ADR-RES = test: Cytotoxicity against human NCI/ADR-RES cells after 48 hrs by trypan blue dye exclusion assay; assay type: functional
OVCAR-8 = test: Cytotoxicity against human OVCAR8 cells after 48 hrs by trypan blue dye exclusion assay; assay type: functional; conditions: OVCAR-8, 48 h
DU-145 = test: Cytotoxicity against human DU145 cells after 48 hrs by trypan blue dye exclusion assay; assay type: functional; conditions: DU-145, 48 h
CCRF-CEM = test: Cytotoxicity against human CCRF-CEM cells after 48 hrs by trypan blue dye exclusion assay; assay type: functional
MDA-MB-435 = test: Cytotoxicity against human MDA-MB-435 cells after 48 hrs by trypan blue dye exclusion assay; assay type: functional; conditions: MDA-MB-435, 48 h
COLO 205 = test: Cytotoxicity against human COLO205 cells after 48 hrs by trypan blue dye exclusion assay; assay type: functional; conditions: COLO 205, 48 h
Paracentrotus lividus [1] = test: Antimitotic activity against Paracentrotus lividus embryo assessed as cleavage arrest at 2 fold less effective threshold concentration after 2.5 to 6 hrs; assay type: functional, organism-based
CAKI-1 = test: Cytotoxicity against human CAKI-1 cells after 48 hrs by trypan blue dye exclusion assay; assay type: functional; conditions: CAKI-1, 48 h
M14 = test: Cytotoxicity against human M14 cells after 48 hrs by trypan blue dye exclusion assay; assay type: functional; conditions: M14, 48 h
MCF7 = test: Cytotoxicity against human MCF7 cells after 48 hrs by trypan blue dye exclusion assay; assay type: functional; conditions: MCF7, 48 h
RPMI-8226 = test: Cytotoxicity against human RPMI8226 cells after 48 hrs by trypan blue dye exclusion assay; assay type: functional; conditions: RPMI-8226, 48 h
OVCAR-3 = test: Cytotoxicity against human OVCAR3 cells after 48 hrs by trypan blue dye exclusion assay; assay type: functional; conditions: OVCAR-3, 48 h
UO-31 = test: Cytotoxicity against human UO31 cells after 48 hrs by trypan blue dye exclusion assay; assay type: functional; conditions: UO-31, 48 h
SN12C = test: Cytotoxicity against human SN12C cells after 48 hrs by trypan blue dye exclusion assay; assay type: functional
OVCAR-4 = test: Cytotoxicity against human OVCAR4 cells after 48 hrs by trypan blue dye exclusion assay; assay type: functional; conditions: OVCAR-4, 48 h
Paracentrotus lividus [2] = test: Microtubule destabilizing activity in Paracentrotus lividus embryo assessed as embryo spinning at 2 fold less effective threshold concentration after 15 mins to 20 hrs; assay type: functional, organism-based
IGROV-1 = test: Cytotoxicity against human IGROV1 cells after 48 hrs by trypan blue dye exclusion assay; assay type: functional; conditions: IGROV-1, 48 h
MDA-MB-468 = test: Cytotoxicity against human MDA-MB-468 cells after 48 hrs by trypan blue dye exclusion assay; assay type: functional; conditions: MDA-MB-468, 48 h
MDA-MB-231 = test: Cytotoxicity against human MDA-MB-231 cells after 48 hrs by trypan blue dye exclusion assay; assay type: functional; conditions: MDA-MB-231, 48 h
NCI-H522 = test: Cytotoxicity against human NCI-H522 cells after 48 hrs by trypan blue dye exclusion assay; assay type: functional; conditions: NCI-H522, 48 h
OVCAR-5 = test: Cytotoxicity against human OVCAR5 cells after 48 hrs by trypan blue dye exclusion assay; assay type: functional; conditions: OVCAR-5, 48 h
SW-620 = test: Cytotoxicity against human SW620 cells after 48 hrs by trypan blue dye exclusion assay; assay type: functional; conditions: SW-620, 48 h
T47D = test: Cytotoxicity against human T47D cells after 48 hrs by trypan blue dye exclusion assay; assay type: functional
[3] = Cytotoxicity against human Hs 578T cells after 48 hrs by trypan blue dye exclusion assay; assay type: functional
HCC 2998 = test: Cytotoxicity against human HCC2998 cells after 48 hrs by trypan blue dye exclusion assay; assay type: functional; conditions: HCC 2998, 48 h
SK-MEL-5 = test: Cytotoxicity against human SK-MEL-5 cells after 48 hrs by trypan blue dye exclusion assay; assay type: functional; conditions: SK-MEL-5, 48 h
BT-549 = test: Cytotoxicity against human BT549 cells after 48 hrs by trypan blue dye exclusion assay; assay type: functional; conditions: BT-549, 48 h
UACC-62 = test: Cytotoxicity against human UACC62 cells after 48 hrs by trypan blue dye exclusion assay; assay type: functional; conditions: UACC-62, 48 h
SNB-75 = test: Cytotoxicity against human SNB75 cells after 48 hrs by trypan blue dye exclusion assay; assay type: functional; conditions: SNB-75, 48 h
HOP-92 = test: Cytotoxicity against human HOP92 cells after 48 hrs by trypan blue dye exclusion assay; assay type: functional; conditions: HOP-92, 48 h
SNB-19 = test: Cytotoxicity against human SNB19 cells after 48 hrs by trypan blue dye exclusion assay; assay type: functional; conditions: SNB-19, 48 h
SF-268 = test: Cytotoxicity against human SF268 cells after 48 hrs by trypan blue dye exclusion assay; assay type: functional; conditions: SF-268, 48 h
UACC-257 = test: Cytotoxicity against human UACC257 cells after 48 hrs by trypan blue dye exclusion assay; assay type: functional; conditions: UACC-257, 48 h
Paracentrotus lividus [4] = test: Antimitotic activity against Paracentrotus lividus embryo assessed as cleavage alteration at 2 fold less effective threshold concentration after 2.5 to 6 hrs; assay type: functional, organism-based
SK-MEL-28 = test: Cytotoxicity against human SK-MEL-28 cells after 48 hrs by trypan blue dye exclusion assay; assay type: functional; conditions: SK-MEL-28, 48 h
SK-OV-3 = test: Cytotoxicity against human SKOV3 cells after 48 hrs by trypan blue dye exclusion assay; assay type: functional; conditions: SK-OV-3, 48 h
A498 = test: Cytotoxicity against human A498 cells after 48 hrs by trypan blue dye exclusion assay; assay type: functional; conditions: A498, 48 h
HCT-116 = test: Cytotoxicity against human HCT116 cells after 48 hrs by trypan blue dye exclusion assay; assay type: functional; conditions: HCT-116, 48 h
MOLT-4 = test: Cytotoxicity against human MOLT4 cells after 48 hrs by trypan blue dye exclusion assay; assay type: functional; conditions: MOLT-4, 48 h
HL-60(TB) = test: Cytotoxicity against human HL-60(TB) cells after 48 hrs by trypan blue dye exclusion assay; assay type: functional; conditions: HL-60, 48 h
SK-MEL-2 = test: Cytotoxicity against human SK-MEL-2 cells after 48 hrs by trypan blue dye exclusion assay; assay type: functional; conditions: SK-MEL-2, 48 h
NCI-H460 = test: Cytotoxicity against human NCI-H460 cells after 48 hrs by trypan blue dye exclusion assay; assay type: functional; conditions: NCI-H460, 48 h
PC-3 = test: Cytotoxicity against human PC3 cells after 48 hrs by trypan blue dye exclusion assay; assay type: functional; conditions: PC-3, 48 h
Malme-3M = test: Cytotoxicity against human MALME-3M cells after 48 hrs by trypan blue dye exclusion assay; assay type: functional
HT-29 = test: Cytotoxicity against human HT-29 cells after 48 hrs by trypan blue dye exclusion assay; assay type: functional; conditions: HT-29, 48 h
U-251 = test: Cytotoxicity against human U251 cells after 48 hrs by trypan blue dye exclusion assay; assay type: functional; conditions: U-251, 48 h
EKVX = test: Cytotoxicity against human EKVX cells after 48 hrs by trypan blue dye exclusion assay; assay type: functional
A549 = test: Cytotoxicity against human A549 cells after 48 hrs by trypan blue dye exclusion assay; assay type: functional; conditions: A549, 48 h
NCI-H23 = test: Cytotoxicity against human NCI-H23 cells after 48 hrs by trypan blue dye exclusion assay; assay type: functional; conditions: NCI-H23, 48 h
SF-295 = test: Cytotoxicity against human SF295 cells after 48 hrs by trypan blue dye exclusion assay; assay type: functional; conditions: SF-295, 48 h
786-0 = test: Cytotoxicity against human 786-0 cells after 48 hrs by trypan blue dye exclusion assay; assay type: functional; conditions: 786-0, 48 h
ACHN = test: Cytotoxicity against human ACHN cells after 48 hrs by trypan blue dye exclusion assay; assay type: functional
HCT-15 = test: Cytotoxicity against human HCT15 cells after 48 hrs by trypan blue dye exclusion assay; assay type: functional; conditions: HCT-15, 48 h
TK-10 = test: Cytotoxicity against human TK10 cells after 48 hrs by trypan blue dye exclusion assay; assay type: functional; conditions: TK-10, 48 h
SR = test: Cytotoxicity against human SR cells after 48 hrs by trypan blue dye exclusion assay; assay type: functional

## COc1ccc2c(c1)C(c1cc(OC)c3c(c1)OCO3)C1=C(COC1=O)N2 (stereo unspecified)
NCI-H226
  GI50: 23300 nM
KM12
  GI50: 254 nM
RXF 393
  GI50: 130 nM
LOX IMVI
  GI50: 702 nM
NCI-H322M
  GI50: 283 nM
SF-539
  GI50: 359 nM
NCI/ADR-RES
  GI50: 289 nM
OVCAR-8
  GI50: 595 nM
DU-145
  GI50: 399 nM
CCRF-CEM
  GI50: 424 nM
MDA-MB-435
  GI50: 49 nM
COLO 205
  GI50: 268 nM
Paracentrotus lividus [1]
  Activity: inactive
CAKI-1
  GI50: 709 nM
M14
  GI50: 247 nM
MCF7
  GI50: 254 nM
RPMI-8226
  GI50: 494 nM
OVCAR-3
  GI50: 234 nM
UO-31
  GI50: 33100 nM
SN12C
  GI50: 622 nM
OVCAR-4
  GI50: 762 nM
Paracentrotus lividus [2]
  Activity: inactive
IGROV-1
  GI50: 679 nM
MDA-MB-468
  GI50: 230 nM
MDA-MB-231
  GI50: 698 nM
NCI-H522
  GI50: 348 nM
OVCAR-5
  GI50: 629 nM
SW-620
  GI50: 377 nM
T47D
  GI50: 50500 nM
[3]
  GI50: 199 nM
HCC 2998
  GI50: 568 nM
SK-MEL-5
  GI50: 269 nM
BT-549
  GI50: 1190 nM
UACC-62
  GI50: 88.1 nM
SNB-75
  GI50: 48.7 nM
HOP-92
  GI50: 425 nM
SNB-19
  GI50: 518 nM
SF-268
  GI50: 805 nM
UACC-257
  GI50: > 100000 nM
Paracentrotus lividus [4]
  Activity: inactive
SK-MEL-28
  GI50: 206 nM
SK-OV-3
  GI50: 318 nM
A498
  GI50: 138 nM
HCT-116
  GI50: 457 nM
MOLT-4
  GI50: 569 nM
HL-60(TB)
  GI50: 287 nM
SK-MEL-2
  GI50: 429 nM
NCI-H460
  GI50: 19200 nM
PC-3
  GI50: 358 nM
Malme-3M
  GI50: > 100000 nM
HT-29
  GI50: 326 nM
U-251
  GI50: 805 nM
EKVX
  GI50: 982 nM
A549
  GI50: 491 nM
NCI-H23
  GI50: 317 nM
SF-295
  GI50: 82.5 nM
786-0
  GI50: 594 nM
ACHN
  GI50: 1570 nM
HCT-15
  GI50: 485 nM
TK-10
  GI50: > 100000 nM
SR
  GI50: 324 nM
